According to US7417025B2, “Use of poly-α2,8-sialic acid mimetic peptides to modulate NCAM functions” (Centre National de la Recherche Scientifique, priority 2002, dated 2008):
“Also recorded” adds a separate entry of the source.

Experiments:
30H12 antibody = assay: ELISA with peptide-BSA conjugate on 30H12-coated plates; type: binding; details: no competitor, FIG. 12A
Source text: FIG. 12A: ELISA using 30H12 anti-PSA monoclonal antibody-coated plates.
The specificity of the cyclic peptides was investigated in an ELISA assay using plates coated with 30H12 antibody, following the protocol as described above for the competitive ELISA, with the exception that the competitor was omitted.

[1] = test system: 30H12 monoclonal antibody; assay: Competitive binding to PSA-NCAM expressing cells (30H12); design: dose or concentration left out as unconfirmed
Protocol: FIGS. 12B, 12C and 12D: competitive binding to PSA-NCAM expressing cells. B: pre-incubation of p65 (1 mM) or p66 (1 mM) with MenB anti-PSA antibody. C: 30H12 anti-PSA antibody without peptide. […]
(§1) The specificity of p65 and p66 peptides was tested in a competition assay using anti-PSA antibodies and PSA-NCAM expressing cells. […] The binding specificity was examined in greater detail by testing peptide recognition by another anti-PSA mononclonal antibody (MenB). […] Thus, p65 and p66 mimotopes appear to be specific for a unique (idiotypic) determinant.

MenB anti-PSA antibody = assay: Competitive binding to PSA-NCAM expressing cells (MenB)
Protocol: FIGS. 12B, 12C and 12D: competitive binding to PSA-NCAM expressing cells. B: pre-incubation of p65 (1 mM) or p66 (1 mM) with MenB anti-PSA antibody. C: 30H12 anti-PSA antibody without peptide. D: pre-incubation of p65 (1 mM) or p66 (1 mM) with 30H12 anti-PSA antibody.
as §1

[2] = test system: Mouse dorsal root ganglion explants (E13.5); assay: Dorsal root ganglion explant culture: neurite outgrowth and fasciculation; type: cell-based
Protocol: E13.5 DRGs were dissected out from mice embryos in HBSS medium and seeded on glass coverslips coated with polylysine or with peptides linked to BSA. Explants were cultured in the presence or the absence of the peptides under soluble form (40 μM) in two ml of neurobasal medium (DMEM/Ham's F12, 3:1 (V/V), GIBCO, buffered with 20 mM Hepes), supplemented as described in Faivre-Sarrailh et al., J. Cell. Sci., 1999, 18, 3015-3027 and Chazal et al., J.Neurosci., 2000, 20, 1446-1457.
Fixed DRGs (Dorsal Root ganglia) explants and sections were incubated at 4° C. respectively 2 hr with an anti-neurofilament (SMI-31, dilution 1:800, STERNBERGER MONOCLONALS) and overnight with an anti-PSA antibody (dilution 1:200, Rougon et al, J. Cell. Biol., 1986, 103, 2429-2437). Revelation was performed by 1 hr incubation with the corresponding fluorescent-labeled secondary antibody (Goat anti-mouse IgM or IgG conjugated with texas red, IMMUNOTECH)
(§2) After 48 h in culture, explants were examining directly (SVZ) or after overnight fixation with a 4% paraformaldehyde solution in PBS and immunostaining (DRGs). Observation was done using 2, 5×, 5×, 10× and 32× objectives (Axiovert 35M, ZEISS). Images were collected with a video camera (Cool View, PHOTONIC SCIENCE) and analysed using image-processing software (Visiolab1000, BIOCOM). Mean migration distance (calculated on five different experiments, including at least five explants per condition) or mean length of the longest neurite (calculated on two different experiments, including at least eight explants per condition), was the distance in micrometers between the explant edge and the border of the cell migration front. Four measurements were performed for each explant. The significance of the differences between the control and the different experimental conditions was calculated by Student's t test.
Mouse dorsal root ganglion explants (E13.5) were cultured in the presence of p65 and p66 cyclic mimetic peptides, either in soluble form or coated on the microplates as BSA conjugates. Cells cultured in the absence of peptides or in the presence of reverse peptides (coated or in soluble form) were used as controls.

chick retina axons = assay: Intravitreal injection in chick embryo, retinal whole mount: axon fasciculation and guidance in vivo; details: injected into chicken embryo eyes at E3, retina observed at E9
Protocol: The dashed rectangle indicates the area from which photographs were taken. Arrows point toward the optic fissure. Axons of E9 chick retina injected at E3 with the reverse peptide (C,F) or the p65 peptide (D,G,E,H). Arrowheads show examples of axons that leave their fascicle and run perpendicularly to it.
Injections were performed as described in Monnier et al. (Developmental Biology, 2001, 229, 1-14). Briefly, a 2×2 cm window was cut into the shell over E3 chick embryos. One μl of Fast green with 10 mM of p65 or reverse peptide was injected into the right eye vitreous body using a capillary. After a five-days incubation at 37° C., (E8) retinae were dissected, spread onto nitrocellulose filters (MILIPORE), and fixed with 4% paraformaldehyde solution in PBS. Two small DiI (1,1′-dioctadecyl-3,3,3′,3′-tetramethylindocarbocyanine perchlorate) crystals were applied dorsally to the optic fissure. Retinae were stored in the dark at 37° C. for 10 days until the dye reached the axonal growth cones in the fissure, mounted in glycerol:PBS (9:1, v:v) and analysed using confocal microscopy.

[3] = test system: subventricular zone explants (neuronal precursors); assay: Subventricular zone (SVZ) explant culture: cell migration in vitro; type: cell-based, mouse
Protocol: Cultures of SVZ explants were performed as described in Chazal et al., precited. Briefly, 1-day-old mice were killed by rapid decapitation. Brains were dissected out and sectionned by Vibratome (Leica). The SVZ from the lateral wall of the anterior lateral ventricle horn was dissected out in HBSS medium (LIFE TECHNOLOGIES) and cut into 200-300 μm diameter explants. The explants were mixed with Matrigel (BECKTON DICKINSON) and cultured in four-well dishes. After polymerisation, the gel was overlaid with 400 μl of serum-free medium containing B-27 supplement (LIFE TECHNOLOGIES), in the presence or the absence of 40 μM of peptides (p65, p66, reverse p65, p21 or p22) and 70 U of Endo N per milliliter.
as §2

[4] = test system: subventricular zone explants (neuronal precursors); assay: as above; type: cell-based, mouse; details: 0.4 μM peptide
[5] = peptide in coated form (BSA conjugate)
[6] = peptide in soluble form (40 μM), versus controls

CSKIASMETGCG [p66]
Binding of cyclic peptides to 30H12 antibody in ELISA (30H12 antibody): highest binding
Binding of 30H12 monoclonal antibody to PSA-NCAM expressing cells after pre-incubation with peptide [1]: prevented its binding
Recognition of PSA-NCAM by MenB after pre-incubation with peptide (MenB anti-PSA antibody; FIG. 12C): did not prevent recognition of PSA-NCAM
Antibody specificity of peptide binding (30H12 versus MenB) (MenB anti-PSA antibody; in words): bind only to 30H12
Fasciculation [2, 5]: opposite effect on fasciculation
Neurite outgrowth [2, 5]: no effect on neurite outgrowth; also recorded: no significant increase
Axonal growth [2, 6]: significant increase in axonal growth
Fasciculation of axon bundles [2, 6]: clear defasciculation of axon bundles
Increase of neurite outgrowth compared to the controls ([2]; peptide in soluble form, mean length of the longest neurite): 21%
Axon guidance and fasciculation in retina in vivo (chick retina axons): axons guidance and fasciculation defects
Rate of migration of the neuronal precursors and chain-like arrangement ([3]; SVZ explants in Matrigel, FIG. 4): increases the rate of migration
PSA-dependence of the migration effect ([3]; with endo N treatment): abolished by endo N treatment
Increase in the rate of migration of the neuronal precursors compared with the control without peptide [4]: +26%
